{
  "source": "patent US4284653A",
  "about": "“Process for handling and processing fish meat” (Nippon Suisan Kabushiki Kaisha, priority 1979, dated 1981)",
  "key": {"[1]": {"tested_on": "protease of hake flesh with jellied condition", "assay": "Inhibition of protease in aqueous extract of hake meat with jellied condition (urea-denatured hemoglobin substrate, Folin method)", "format": "biochemical", "description": "North Pacific hake (Merluccius products) on which the sporosa were parasitic was minced and homogenized with two volumes of water. After standing for 2 hours, the homogenate was centrifuged (15,000 xg, 20 minutes) under cooling condition, and the supernatant was dialyzed against tap water for 24 hours. The residual liquid remaining after the dialysis was heated at 50° C. for 20 minutes. The resulting precipitate was removed under cooling by centrifuge (15,000 xg, 30 minutes). The supernatant liquid was designated an aqueous extract of fish meat with jellied condition.\nSeparately, 3 ml of Mclvaine buffer solution (pH=3) was added to 1 ml of urea-denatured bovine hemoglobin (at a concentration of 4%) to prepare a substrate solution. 1 ml of a 1:1 mixture of the above obtained extract and a solution of various TPI was added to the above prepared substrate solution. The resulting mixture was incubated at 40° C. for 5 minutes. Thereafter, 5 ml of a 5% trichloroacetic acid was added to the mixture to allow the reaction to stop. The reaction mixture was left to stand for 30 minutes at room temperature. Then, the mixture was filtered through a filter paper (Toyo filter paper No. 5C). 1 ml of the filtrate was colorometrically determined at a wave length of 660 mμ by a Folin method.\nThe protease inhibition ratio of various proteolytic activity of the TPI is expressed as the […] relative activity with respect to 100 of the activity of an extract prepared by adding water instead of the TPI solution. That is, [formula]"}, "[2]": {"tested_on": "proteolytic enzyme of yellowfin sole meat with jellied condition", "assay": "Proteolytic enzyme activity of treated fish meat, yellowfin sole", "format": "biochemical, yellowfin sole (Limanda aspera)", "source_text": "(§1) The quantity of the TPI added generally also depends upon the concentration of a proteolytic enzyme of fish meat contaminated with sporozoa. For example, North Pacific hake on which sporozoa are parasitic has a proteolytic enzyme activity of from a low level up to 30,000 units.\nOne hundred North Pacific frozen yellowfin sole containing a large number of spots of jellied condition in their muscles were thawed. These flatfish were gutted and the abdominal pores were washed.\nDuring the dipping, the flatfish were irradiated with supersonic waves having a frequency of 18 KC for 10 minutes by using the same magnetostriction type supersonic wave oscillator as described in Example 2. Thereafter, the flatfish were drained. Then, these fish were dried at 15° C. in a low temperature dryer dehydromaster to obtain dried flatfish with salt.\n350 Kg of the flatfish was headed and gutted and the meat was collected by means of a fish meat separator. […] As described in Example 9, this fish meat was twice soaked in cold water in a quantity two times that of the meat and drained to obtain 130 Kg of hydroextracted meat.\nA solution of 0.6 g of antipain in 1 l of water was added to 60 Kg of each sample of the hydroextracted meat and the mixture was uniformly mixed. 10 Kg of the mixture was packed in a polyethylene bag to obtain a raw kneaded meat. A control was prepared in the same manner except that 1 l of water alone was added.\nThese raw kneaded meats were stored in a refrigerator at a temperature of from 4° to 5° C. for 24 hours. Thereafter, these meats were removed from the refrigerator. Then, 1.5 Kg of sodium chloride, 2.5 Kg of sugar, 4.0 Kg of starch, 1.2 Kg of mirin (sweet sake) and 0.5 Kg of sodium glutamate were added to 50 Kg of each of the raw kneaded meats, and the mixture was ground and formed into \"itatuki-kamaboko\" according to a conventional method."}, "[3]": {"tested_on": "proteolytic enzyme of Pacific hake meat with jellied condition", "assay": "Proteolytic enzyme activity of treated fish meat, Pacific hake", "format": "biochemical", "conditions": "Example 11; soaked 10 minutes in 200 l cold water with 100 g sodium hydrogensulfite; control 3,200 units", "source_text": "as §1\nThe resulting fish was subjected to a fillet making machine to obtain skinless fillets. […] Each fillet sample was washed with water containing 0.05% of sodium sulfite. […]\nThen, fish meat was collected from the thawed hake by means of a fish meat separator. […] The fish meat was soaked in cold water in a quantity two times that of the meat and drained, and it was again soaked in cold water in the same quantity and drained to obtain 105 Kg of hydroextracted meat. […]\nThe frozen testing and control kneaded meats thus obtained were thawed and subjected to a model estimation method of elasticity. In testing the elasticity, the kneaded meats are usually formed into a model product of a Japanese style fish meat paste and the model product is evaluated for quality.\n200 Kg of the frozen fillet of the same Pacific hake as that described in Example 9 was thawed. […] Then, the fish meat was soaked in cold water in a quantity two times that of the meat and drained. […] The first portion was soaked in cold water in a quantity two times that of the meat and drained to obtain 50 Kg of hydroextracted meat as a control. […]"}, "[4]": {"conditions": "concentration 0.01%, 40° C., 5 minutes, pH 3"}, "[5]": {"conditions": "aqueous fish meat extract, pH 3, 5 min"}, "[6]": {"conditions": "concentration 0.002%, 40° C., 5 minutes, pH 3"}, "[7]": {"conditions": "concentration 0.02%, 40° C., 5 minutes, pH 3"}},
  "note": "Starred links: 1 amine or outer side, 2 acyl side, 3 side chain; linkers in the order of their positions; H or OH if unused. Residues, ends and D or L forms follow the SMILES beside them. CO = O=C([*:1])[*:2]",
  "data": [
    {"compound": "OCl", "note": "[hypochlorous acid]", "values": [
      {"measurement": "inhibition ratio (%)", "setting": "[1]; [4]", "result": 88.5, "unit": "%"}
    ]},
    {"compound": "O=C(OOC(=O)c1ccccc1)c1ccccc1", "note": "[benzoyl peroxide]", "values": [
      {"measurement": "inhibition ratio (%)", "setting": "[1]; [4]", "result": 82.3, "unit": "%"}
    ]},
    {"compound": "N.O.O.O.O.O.O.O.O.O.O.O.O.O=S(=O)([O-])O.O=S(=O)([O-])[O-].[Al+3]", "note": "[ammonium alum]", "values": [
      {"measurement": "inhibition ratio (%)", "setting": "[1]; [4]", "result": 89.8, "unit": "%"}
    ]},
    {"compound": "[K+].[K+].[O]=[Cr](=[O])([O-])[O][Cr](=[O])(=[O])[O-]", "note": "[potassium dichromate, reference compound]", "values": [
      {"measurement": "inhibition of the activity of the protease produced by the sporozoa (in words)", "setting": "[1]", "result": "high inhibition"},
      {"measurement": "inhibition ratio (%)", "setting": "[1]; [5]", "result": 96.1, "unit": "%"}
    ]},
    {"compound": "[Ca+2].[O-]Cl.[O-]Cl", "note": "[calcium hypochlorite]", "values": [
      {"measurement": "inhibition ratio (%)", "setting": "[1]; [4]", "result": 98.1, "unit": "%"}
    ]},
    {"compound": "[O]=[Ca]", "note": "[calcium oxide]", "values": [
      {"measurement": "inhibition ratio (%)", "setting": "[1]; [4]", "result": 100.0, "unit": "%"}
    ]},
    {"compound": "[O][Cl+][O-]", "note": "[chlorine dioxide]", "values": [
      {"measurement": "inhibition ratio (%)", "setting": "[1]; [4]", "result": 100.0, "unit": "%"}
    ]},
    {"compound": "chymostatin [reference compound]", "values": [
      {"measurement": "inhibition ratio (%)", "setting": "[1]; [6]", "result": 97.0, "unit": "%"},
      {"measurement": "proteolytic enzyme activity of dried flatfish with salt whose muscle was softened and partially depressed", "setting": "[2]; Example 7, dipped 2 hours in 10% sodium chloride containing 0.01% chymostatin, supersonic waves 18 KC 10 minutes, muscles had 5,000 units before", "result": 120, "unit": "units"}
    ]},
    {"compound": "OCl", "note": "[sodium hypochlorite]", "values": [
      {"measurement": "inhibition ratio (%)", "setting": "[1]; [4]", "result": 87.8, "unit": "%"}
    ]},
    {"compound": "OO", "note": "[hydrogen peroxide]", "values": [
      {"measurement": "inhibition ratio (%)", "setting": "[1]; concentration 0.001%, 40° C., 5 minutes, pH 3", "result": 86.8, "unit": "%"},
      {"measurement": "inhibition ratio (%)", "setting": "[1]; [4]", "result": 100.0, "unit": "%"}
    ]},
    {"compound": "O=S([O-])[O-].[Na+].[Na+]", "note": "[sodium sulfite]", "values": [
      {"measurement": "inhibition ratio (%)", "setting": "[1]; [7]", "result": 93.4, "unit": "%"}
    ]},
    {"compound": "sodium chlorite", "values": [
      {"measurement": "inhibition ratio (%)", "setting": "[1]; [4]", "result": 100.0, "unit": "%"}
    ]},
    {"compound": "O=[N+]([O-])[O-].[K+]", "note": "[potassium nitrate, reference compound]", "values": [
      {"measurement": "inhibition ratio (%)", "setting": "[1]; [4]", "result": -1.4, "unit": "%"}
    ]},
    {"compound": "N.N.O=S(=O)(O)OOS(=O)(=O)O", "note": "[ammonium persulfate]", "values": [
      {"measurement": "inhibition ratio (%)", "setting": "[1]; concentration 0.015%, 40° C., 5 minutes, pH 3", "result": 91.7, "unit": "%"}
    ]},
    {"compound": "O=NO", "note": "[sodium nitrite]", "values": [
      {"measurement": "inhibition ratio (%)", "setting": "[1]; [5]", "result": 90.2, "unit": "%"}
    ]},
    {"compound": "CC(C)[C@H](NC(=O)[C@H](CCCNC(=N)N)NC(=O)N[C@@H](Cc1ccccc1)C(=O)O)C(=O)N[C@H](C=O)CCCNC(=N)N", "note": "[antipain] ({Phe-CO}-Arg-Val-Arg-aldehyde)", "values": [
      {"measurement": "inhibition ratio (%)", "setting": "[1]; [6]", "result": 72.9, "unit": "%"},
      {"measurement": "proteolytic enzyme activity of raw kneaded meat", "setting": "[2]; Example 12, 0.6 g antipain in 1 l water per 60 Kg hydroextracted meat, control 1,140 units", "result": 980, "unit": "units"},
      {"measurement": "proteolytic enzyme activity of ground meat", "setting": "[2]; Example 12, after 24 hours at 4° to 5° C. and grinding with salt, sugar, starch, control 1,080 units", "result": 23, "unit": "units"}
    ]},
    {"compound": "O=S([O-])S(=O)(=O)[O-].[Na+].[Na+]", "note": "[sodium metabisulfite]", "values": [
      {"measurement": "inhibition ratio (%)", "setting": "[1]; concentration 0.05%, 40° C., 5 minutes, pH 3", "result": 96.2, "unit": "%"}
    ]},
    {"compound": "O=S([O-])O.[Na+]", "note": "[sodium hydrogen sulfite]", "values": [
      {"measurement": "inhibition ratio (%)", "setting": "[1]; [7]", "result": 96.1, "unit": "%"},
      {"measurement": "proteolytic enzyme activity of hydroextracted meat", "setting": "[3]", "result": 840, "unit": "units"}
    ]},
    {"compound": "CC(=O)N[C@@H](CC(C)C)C(=O)N[C@@H](CC(C)C)C(=O)N[C@H](C=O)CCCNC(=N)N", "note": "[leupeptin, reference compound]", "values": [
      {"measurement": "inhibition ratio (%)", "setting": "[1]; [6]", "result": 99.0, "unit": "%"}
    ]}
  ]
}
